# Laboratory results reported in PubChem BioAssay AID2060902 (Molecular Pharmacology Branch, DTP, NCI, 2025).
# Tested on: 485368-065-R3-J5-PDC spheroids with HUVEC/MSC, viability
# Assay: Anticancer human tumor 485368-065-R3-J5-PDC patient-derived pancreatic carcinoma cell line growth inhibition [RAS]
# Details: for IC50: curve of first compound; for viability, T/C: stronger effect = lower value
# In short: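 Tumour cells grown as complex spheroids with HUVEC endothelial cells and mesenchymal stem cells, treated with RAS pathway inhibitor combinations. Each agent spans half-log steps from near clinical Cmax, or 10 microM where Cmax is unknown.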
# [1] = second compound 0.000949 µM, first compound 0.0316 µM
# [2] = second compound 0.000949 µM, first compound 0.1 µM
# [3] = second compound 0.000949 µM, first compound 0.316 µM
# [4] = second compound 0.000949 µM, first compound 1 µM
# [5] = second compound 0.003 µM, first compound 0.0316 µM
# [6] = second compound 0.003 µM, first compound 0.1 µM
# [7] = second compound 0.003 µM, first compound 0.316 µM
# [8] = second compound 0.003 µM, first compound 1 µM
# [9] = second compound 0.00949 µM, first compound 0.0316 µM
# [10] = second compound 0.00949 µM, first compound 0.1 µM
# [11] = second compound 0.00949 µM, first compound 0.316 µM
# [12] = second compound 0.00949 µM, first compound 1 µM
# [13] = second compound 0.03 µM, first compound 0.0316 µM
# [14] = second compound 0.03 µM, first compound 0.1 µM
# [15] = second compound 0.03 µM, first compound 0.316 µM
# [16] = second compound 0.03 µM, first compound 1 µM
# [17] = second compound 0.0949 µM, first compound 0.0316 µM
# [18] = second compound 0.0949 µM, first compound 0.1 µM
# [19] = second compound 0.0949 µM, first compound 0.316 µM
# [20] = second compound 0.0949 µM, first compound 1 µM
# [21] = second compound 0.3 µM, first compound 0.0316 µM
# [22] = second compound 0.3 µM, first compound 0.1 µM
# [23] = second compound 0.3 µM, first compound 0.316 µM
# [24] = second compound 0.3 µM, first compound 1 µM
# 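Further: spheroids exposed to agents for seven days before readout.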
smiles,measurement,setting,value
CC(Nc1ccc2c(c1)OCCn1cc(N3C(=O)OCC3C(F)F)nc1-2)C(N)=O (centres undefined) + CCn1c(-c2cc(N3CCN(C)CC3)cnc2C(C)OC)c2c3cc(ccc31)-c1csc(n1)CC(NC(=O)C1CC1C)C(=O)N1CCCC(N1)C(=O)OCC(C)(C)C2,IC50,second compound 0.000949 µM,< 31.6 nM
same,IC50,second compound 0.003 µM,< 31.6 nM
same,IC50,second compound 0.00949 µM,< 31.6 nM
same,IC50,second compound 0.03 µM,< 31.6 nM
same,IC50,second compound 0.0949 µM,< 31.6 nM
same,IC50,second compound 0.3 µM,< 31.6 nM
same,"viability, T/C",[1],26.2%
same,"viability, T/C",[2],23.7%
same,"viability, T/C",[3],24.2%
same,"viability, T/C",[4],18.2%
same,"viability, T/C","second compound 0.000949 µM, first compound 3.16 µM",17.5%
same,"viability, T/C","second compound 0.000949 µM, first compound 10 µM",11.3%
same,"viability, T/C",[5],15%
same,"viability, T/C",[6],13.3%
same,"viability, T/C",[7],12.6%
same,"viability, T/C",[8],11.2%
same,"viability, T/C","second compound 0.003 µM, first compound 3.16 µM",10.1%
same,"viability, T/C","second compound 0.003 µM, first compound 10 µM",7.35%
same,"viability, T/C",[9],10.8%
same,"viability, T/C",[10],11.4%
same,"viability, T/C",[11],9.57%
same,"viability, T/C",[12],9.69%
same,"viability, T/C","second compound 0.00949 µM, first compound 3.16 µM",9.37%
same,"viability, T/C","second compound 0.00949 µM, first compound 10 µM",6.07%
same,"viability, T/C",[13],10.3%
same,"viability, T/C",[14],9.36%
same,"viability, T/C",[15],8.76%
same,"viability, T/C",[16],8.73%
same,"viability, T/C","second compound 0.03 µM, first compound 3.16 µM",7.08%
same,"viability, T/C","second compound 0.03 µM, first compound 10 µM",4.24%
same,"viability, T/C",[17],7.86%
same,"viability, T/C",[18],6.77%
same,"viability, T/C",[19],7.07%
same,"viability, T/C",[20],5.28%
same,"viability, T/C","second compound 0.0949 µM, first compound 3.16 µM",4.78%
same,"viability, T/C","second compound 0.0949 µM, first compound 10 µM",2.97%
same,"viability, T/C",[21],6.57%
same,"viability, T/C",[22],6.98%
same,"viability, T/C",[23],5.66%
same,"viability, T/C",[24],4.05%
same,"viability, T/C","second compound 0.3 µM, first compound 3.16 µM",4.16%
same,"viability, T/C","second compound 0.3 µM, first compound 10 µM",2.04%
O=C(c1ccc(F)c(F)c1Nc1ccc(I)cc1F)N1CC(O)([C@@H]2CCCCN2)C1 + CCn1c(-c2cc(N3CCN(C)CC3)cnc2C(C)OC)c2c3cc(ccc31)-c1csc(n1)CC(NC(=O)C1CC1C)C(=O)N1CCCC(N1)C(=O)OCC(C)(C)C2,IC50,second compound 0.000949 µM,< 3.16 nM
same,IC50,second compound 0.003 µM,< 3.16 nM
same,IC50,second compound 0.00949 µM,< 3.16 nM
same,IC50,second compound 0.03 µM,< 3.16 nM
same,IC50,second compound 0.0949 µM,< 3.16 nM
same,IC50,second compound 0.3 µM,< 3.16 nM
same,"viability, T/C","second compound 0.000949 µM, first compound 0.00316 µM",32.9%
same,"viability, T/C","second compound 0.000949 µM, first compound 0.01 µM",29.9%
same,"viability, T/C",[1],22.8%
same,"viability, T/C",[2],17.6%
same,"viability, T/C",[3],12.8%
same,"viability, T/C",[4],3.33%
same,"viability, T/C","second compound 0.003 µM, first compound 0.00316 µM",19.3%
same,"viability, T/C","second compound 0.003 µM, first compound 0.01 µM",20.3%
same,"viability, T/C",[5],14.9%
same,"viability, T/C",[6],10.8%
same,"viability, T/C",[7],4.68%
same,"viability, T/C",[8],1.33%
same,"viability, T/C","second compound 0.00949 µM, first compound 0.00316 µM",16.1%
same,"viability, T/C","second compound 0.00949 µM, first compound 0.01 µM",12.9%
same,"viability, T/C",[9],10.6%
same,"viability, T/C",[10],5.68%
same,"viability, T/C",[11],1.77%
same,"viability, T/C",[12],1.26%
same,"viability, T/C","second compound 0.03 µM, first compound 0.00316 µM",10.3%
same,"viability, T/C","second compound 0.03 µM, first compound 0.01 µM",8.49%
same,"viability, T/C",[13],6.41%
same,"viability, T/C",[14],2.18%
same,"viability, T/C",[15],1.53%
same,"viability, T/C",[16],1.44%
same,"viability, T/C","second compound 0.0949 µM, first compound 0.00316 µM",6.98%
same,"viability, T/C","second compound 0.0949 µM, first compound 0.01 µM",5.08%
same,"viability, T/C",[17],3%
same,"viability, T/C",[18],1.9%
same,"viability, T/C",[19],1.88%
same,"viability, T/C",[20],1.97%
same,"viability, T/C","second compound 0.3 µM, first compound 0.00316 µM",6.37%
same,"viability, T/C","second compound 0.3 µM, first compound 0.01 µM",3.9%
same,"viability, T/C",[21],2.16%
same,"viability, T/C",[22],2.03%
same,"viability, T/C",[23],2.03%
same,"viability, T/C",[24],2.14%
